In US10421964B2, “UNA oligomers and compositions for treating amyloidosis” (Arcturus Therapeutics, Inc., priority 2015, dated 2019):
[UNA] = unlocked nucleic acid; m = 2'-O-methyl; r = 2'-OH (RNA)

Key:
[1] = lipid; cited from earlier work
[2] = tested on: V30M gene reporter variant (nucleotide sequence 264 to 304 of human TTR containing the point mutation at position 284); assay: PSICHECK reporter assay against V30M gene reporter variant; assay type: cell-based; conditions: for effectiveness against V30M compared with V30V: V30V and V30M gene reporter variants; for selectivity against V30M over V30V: IC50 against V30V over IC50 against V30M; for IC50: V30M gene reporter variant
Method: (§1) Conventional siRNAs that are complementary to the […] mRNA were tiled around position 284. […] Positions 5, 9, 14 and 15 appear to be more accessible to silencing than other positions. […] Four conventional siRNA variations, namely V30M-P5, V30M-P9, V30M-P14, and V30M-P15, were prepared.
(§2) Thus, the selectivity of the conventional siRNAs against V30M over V30V was no more than 5.6.

[3] = tested on: V30V gene reporter variant (nucleotide sequence 264 to 304 of human TTR without the point mutation at position 284); assay: PSICHECK reporter assay against V30V gene reporter variant; assay type: cell-based
Method: as §1, §2

Transthyretin TTR mRNA = assay: Knockdown of TTR protein in plasma of Cynomolgus monkeys after single IV dose of liposomal UNA oligomer (LC-MS/MS SRM); assay type: in vivo, Cynomolgus monkeys (Macaca fascicularis)
Method: A single-dose, pharmacokinetic and pharmacodynamic study of liposomally formulated UNA Oligomers targeting transthyretin (TTR) mRNA following intravenous infusion in Cynomolgus monkeys was performed.
Cynomolgus monkeys (Macaca fascicularis) were selected for this study because the TTR mRNA of Cynomolgus monkeys is homologous to human TTR mRNA, making them a good model for screening the potency of UNA oligomers targeting to TTR mRNA.
In this study, the knockdown of Transthyretin protein was evaluated as a result of treatment with UNA oligomers targeting Transthyretin TTR mRNA, based on SEQ ID NOs:46/86, 59/99, and 60/100, delivered in a liposomal formulation to male Cynomolgus monkeys. Measurements were made following a single intravenous (IV) dose administration. TTR protein concentration in plasma samples was assessed by LC-MS/MS at various time points.
Animals in Groups 1 through 8 were administered the test articles on Day 1 at 0.3 mg/kg, dose volume 6.25 mL/kg, concentration 0.048 mg/mL. Doses were administered as a 15-minute intravenous (IV) infusion, +1 minute, using a pump and disposable syringe.
For each animal, infusion start and end times were recorded; and subsequent sample collection target times were determined based on infusion end time (t=0). All blood specimens, approximately 1 mL, were collected by venipuncture from a peripheral vein from restrained, conscious animals.
The Monkey TTR SRM assay was used, which is a high throughput absolute protein quantitation assay using Selected Reaction Monitoring (SRM) technology platform. In a single SRM assay, the panel can multiplex up to 200 proteins. The assay was performed on a targeted absolute protein quantitation platform, where the key technology was SRM, sometimes also referred to as Multiple Reaction Monitoring (MRM). In a triple-quadrupole (QQQ) mass spectrometer, SRM/MRM is a tandem selection process where selecting peptides by precursor m/z is followed by selecting fragmentations (transitions) of the targeted peptide.

Row | Compound | silencing V30M TTR [2] | activity compared to the conventional siRNA, each targeted to V30M [2] | selectivity against V30M over V30V compared to the conventional siRNA [2] | effectiveness against V30M compared with V30V [2] | further results
1 | CCCCCC/C=C\COC(=O)CCCCCCCN(CCCCCCCC(=O)OC/C=C\CCCCCC)C(=O)SCCCN(CC)CC [ATX- 012] |  |  |  |  | pKa [1]: 10
2 | ĞCCAUGCAUGUGUUCAGAAŨmU / UUCUGAACACAUGCAUĞGCŨmU (chain 1 GCCAUGCAUGUGUUCAGAAUU; chain 2 UUCUGAACACAUGCAUGGCUU; siRNA; chain 1: sugars from the 5' end [UNA]1 r18 [UNA]1 m1, backbone not given here; chain 2: sugars from the 5' end r16 [UNA]1 r2 [UNA]1 m1, backbone not given here) [P16U17] | effective in silencing V30M TTR |  |  |  | 
3 | ĞCCAUGCAUGUGUUCAGAAŨmU / UUCUGAÃCACAUGCAUGGCŨmU (chain 1 GCCAUGCAUGUGUUCAGAAUU; chain 2 UUCUGAACACAUGCAUGGCUU; siRNA; chain 1: sugars from the 5' end [UNA]1 r18 [UNA]1 m1, backbone not given here; chain 2: sugars from the 5' end r6 [UNA]1 r12 [UNA]1 m1, backbone not given here) [P16U7] | effective in silencing V30M TTR | superior to the activity of the conventional siRNA V30M-P16 | substantially greater than for the conventional siRNA V30M-P16 | more effective against V30M than V30V | 
4 | ĞGCCAUGCAUGUGUUCAGAŨmU / UCUGAACACAUGCAŨGGCCŨmU (chain 1 GGCCAUGCAUGUGUUCAGAUU; chain 2 UCUGAACACAUGCAUGGCCUU; siRNA; chain 1: sugars from the 5' end [UNA]1 r18 [UNA]1 m1, backbone not given here; chain 2: sugars from the 5' end r14 [UNA]1 r4 [UNA]1 m1, backbone not given here) [P15U15] | effective in silencing V30M TTR |  | substantially greater than for the conventional siRNA V30M-P15 | more effective against V30M than V30V | 
5 | ĞGCCAUGCAUGUGUUCAGAŨmU / UCUGAAĈACAUGCAUGGCCŨmU (chain 1 GGCCAUGCAUGUGUUCAGAUU; chain 2 UCUGAACACAUGCAUGGCCUU; siRNA; chain 1: sugars from the 5' end [UNA]1 r18 [UNA]1 m1, backbone not given here; chain 2: sugars from the 5' end r6 [UNA]1 r12 [UNA]1 m1, backbone not given here) [P15U7] | effective in silencing V30M TTR |  | substantially greater than for the conventional siRNA V30M-P15 | more effective against V30M than V30V | 
6 | ĞCCAUGCAUGUGUUCAGAAŨmU / UUCUGAACACAUGCAŨGGCŨmU (chain 1 GCCAUGCAUGUGUUCAGAAUU; chain 2 UUCUGAACACAUGCAUGGCUU; siRNA; chain 1: sugars from the 5' end [UNA]1 r18 [UNA]1 m1, backbone not given here; chain 2: sugars from the 5' end r15 [UNA]1 r3 [UNA]1 m1, backbone not given here) [P16U16] | effective in silencing V30M TTR | superior to the activity of the conventional siRNA V30M-P16 | substantially greater than for the conventional siRNA V30M-P16 | more effective against V30M than V30V | 
7 | ĞCCAUGCAUGUGUUCAGAAŨmU / UUCUGÃACACAUGCAUGGCŨmU (chain 1 GCCAUGCAUGUGUUCAGAAUU; chain 2 UUCUGAACACAUGCAUGGCUU; siRNA; chain 1: sugars from the 5' end [UNA]1 r18 [UNA]1 m1, backbone not given here; chain 2: sugars from the 5' end r5 [UNA]1 r13 [UNA]1 m1, backbone not given here) [P16U6] | effective in silencing V30M TTR | superior to the activity of the conventional siRNA V30M-P16 | substantially greater than for the conventional siRNA V30M-P16 | more effective against V30M than V30V | IC50 [3]: 2.12 nM; superiority of selectivity over the selectivity of 5.6 of the conventional siRNA [2]: 4 fold; selectivity against V30M over V30V [2]: 23; IC50 [2]: 0.0924 nM
8 | ĞGCCAUGCAUGUGUUCAGAŨmU / UCUGAACACAUGCÃUGGCCŨmU (chain 1 GGCCAUGCAUGUGUUCAGAUU; chain 2 UCUGAACACAUGCAUGGCCUU; siRNA; chain 1: sugars from the 5' end [UNA]1 r18 [UNA]1 m1, backbone not given here; chain 2: sugars from the 5' end r13 [UNA]1 r5 [UNA]1 m1, backbone not given here) [P15U14] | effective in silencing V30M TTR |  |  |  | 
9 | ĞGCCAUGCAUGUGUUCAGAŨmU / UCUGAÃCACAUGCAUGGCCŨmU (chain 1 GGCCAUGCAUGUGUUCAGAUU; chain 2 UCUGAACACAUGCAUGGCCUU; siRNA; chain 1: sugars from the 5' end [UNA]1 r18 [UNA]1 m1, backbone not given here; chain 2: sugars from the 5' end r5 [UNA]1 r13 [UNA]1 m1, backbone not given here) [P15U6] | effective in silencing V30M TTR | superior to the activity of the conventional siRNA V30M-P15 | substantially greater than for the conventional siRNA V30M-P15 | more effective against V30M than V30V | IC50 [3]: 0.92 nM; superiority of selectivity over the selectivity of 5.6 of the conventional siRNA [2]: 4 fold; selectivity against V30M over V30V [2]: 24; IC50 [2]: 0.0376 nM
10 | ĞCCAUGCAUGUGUUCAGAAŨmU / UUCUGAACACAUGCÃUGGCŨmU (chain 1 GCCAUGCAUGUGUUCAGAAUU; chain 2 UUCUGAACACAUGCAUGGCUU; siRNA; chain 1: sugars from the 5' end [UNA]1 r18 [UNA]1 m1, backbone not given here; chain 2: sugars from the 5' end r14 [UNA]1 r4 [UNA]1 m1, backbone not given here) [P16U15] | effective in silencing V30M TTR | superior to the activity of the conventional siRNA V30M-P16 | substantially greater than for the conventional siRNA V30M-P16 | more effective against V30M than V30V | 
11 | ŨAACCAAGAGUAUUCCAUUŨmU / AAUGGAAUACUCUUGGUUAŨmU (chain 1 UAACCAAGAGUAUUCCAUUUU; chain 2 AAUGGAAUACUCUUGGUUAUU; siRNA; chain 1: sugars from the 5' end [UNA]1 r18 [UNA]1 m1, backbone not given here; chain 2: sugars from the 5' end r19 [UNA]1 m1, backbone not given here) [SEQ ID NO:60/100] |  |  |  |  | knockdown of TTR (Transthyretin TTR mRNA; at 20 days, single IV dose 0.3 mg/kg, primates): over 91%; knockdown of TTR (Transthyretin TTR mRNA; continuous duration of more than 20 days, single IV dose 0.3 mg/kg, primates): more than 70%; TTR protein levels (Transthyretin TTR mRNA; continuous duration of more than one month (30 days), single injection, primates): below 50%; knockdown of Transthyretin protein in vivo (Transthyretin TTR mRNA; liposomal formulation, male Cynomolgus monkeys, single IV dose 0.3 mg/kg, plasma): achieved
12 | ĞGCCAUGCAUGUGUUCAGAŨmU / UCUGAACACAUGCAUĞGCCŨmU (chain 1 GGCCAUGCAUGUGUUCAGAUU; chain 2 UCUGAACACAUGCAUGGCCUU; siRNA; chain 1: sugars from the 5' end [UNA]1 r18 [UNA]1 m1, backbone not given here; chain 2: sugars from the 5' end r15 [UNA]1 r3 [UNA]1 m1, backbone not given here) [P15U16] | effective in silencing V30M TTR |  | substantially greater than for the conventional siRNA V30M-P15 | more effective against V30M than V30V | 
13 | CCCCCC/C=C\COC(=O)CCCCCCCN(CCCCCCCC(=O)OC/C=C\CCCCCC)C(=O)CSCCCN(CC)CC [ATX- 008] |  |  |  |  | pKa [1]: 10
